Tests used:
[1] = system: Cell cycle (G1 attenuation); assay: Cell cycle (G1 attenuation); format: cell-based
NASH mice = assay: Non-alcoholic steatohepatitis (STZ + high fat diet) mouse model; format: in vivo; conditions: for Mean body weight at the day before sacrifice: 5 to 9 weeks of age, Vehicle 18.8±1.0 g; for Fibrosis area (Sirius red-positive area): Vehicle 1.07±0.18%; for Inflammation area (F4/80-positive area): Vehicle 3.57±0.88%; for Fat deposition area (oil red-positive area): Vehicle 23.57±6.52%; for Liver TG content: Vehicle 67.3±29.0; for Whole blood HbA1c levels: FIG. 9; for NAFLD Activity score (NAS): Vehicle 5.4±0.9
Experimental: NASH was induced in 48 male mice by a single subcutaneous injection of 200 μg streptozotocin (STZ; Sigma-Aldrich) in the back of mice 2 days after birth, and by feeding with high fat diet (HFD; 57 kcal % fat) after 4 weeks of age. At 5 weeks of age, the NASH mice were randomized into 6 groups of 8 mice based on body weight. Eight male littermates, fed with normal diet (without STZ treatment, were used for the Normal group. Vehicle, Compound A and Telmisartan were administered by the oral route in a volume of 10 mL/kg body weight.
Compound A was administered twice daily at doses of 1, 3 or 10 mg/kg body weight (i.e., 2, 6 or 20 mg/kg/day) and once daily at dose of 30 mg/kg body weight. Telmisartan was administered once daily at a dose of 10 mg/kg body weight.
C57BL/6 mice (15-day pregnant female) were obtained from Charles River Laboratories Japan (Japan). The animals were maintained in a SPF facility under controlled conditions of temperature (23±2° C.), humidity (45±10%), lighting (12-hour artificial light and dark cycles; light from 8:00 to 20:00) and air exchange. A high pressure (20±4 Pa) was maintained in the experimental room to prevent contamination of the facility.
Mice were fasted for 4 hours before blood was collected at the time of sacrifice. HbA1c levels were quantified in whole blood samples by DCA Vantage Analyzer (Siemens Healthcare Diagnostics, USA). For plasma biochemistry, blood was collected in polypropylene tubes with anticoagulant (Novo-Heparin;) and centrifuged at 1,000×g for 15 minutes at 4° C. The supernatant was collected and stored at −80° C. until use. Plasma levels of glucose, ALT, TG and total cholesterol were measured by FUJI DRI-CHEM 7000 (Fujifilm, Japan). Plasma insulin concentration was quantified by the Ultra Sensitive Mouse Insulin ELISA Kit.
Liver total lipid-extracts were obtained by Folch's method (Folch J. et al., J. Biol. Chem. 1957; 226: 497). Liver samples were homogenized in chloroform-methanol (2:1, v/v) and incubated overnight at room temperature. After washing with chloroform-methanol-water (8:4:3, v/v/v), the extracts were evaporated to dryness, and dissolved in isopropanol. Liver TG levels were measured by Triglyceride E-test (Wako Pure Chemical Industries). Extracts were diluted 2-fold in isopropanol when the TG content exceeded the detection limit.
For HE staining, sections were cut from paraffin blocks of liver tissue prefixed in Bouin's solution and stained with Lillie-Mayer's Hematoxylin (Muto Pure Chemicals, Japan) and eosin solution (Wako Pure Chemical Industries). NAFLD Activity score (NAS) was calculated according to the criteria of Kleiner (Kleiner D E et al., Hepatology, 2005; 41:1313). To visualize collagen deposition, Bouin's fixed liver sections were stained using picro-Sirius red solution (Waldeck, Germany). To visualize macro- and microvesicular fat, cryosections were cut from frozen liver tissues, prefixed in 10% neutral buffered formalin, embedded in Tissue-Tek O.C.T. compound (Sakura Finetek Japan, Japan), and stained with Oil Red O (Sigma-Aldrich). For immunohistochemistry, sections were cut from frozen liver tissues embedded in Tissue-Tek O.C.T. compound and fixed in acetone. Endogenous peroxidase activity was blocked using 0.03% H2O2 for 5 minutes, followed by incubation with Block Ace (Dainippon Sumitomo Pharma, Japan) for 10 minutes. The sections were incubated with a 200-fold dilution of anti-F4/80 antibody (BMA Biomedicals, Switzerland) over night at 4° C. After incubation with secondary antibody (HRP-Goat anti-rat antibody, Invitrogen, USA), enzyme-substrate reactions were performed using 3, 3′-diaminobenzidine/H2O2 solution (Nichirei, Japan). […]

CCN(CC)C/C=C\c1cc(F)ccc1S(=O)(=O)Nc1ccc2c(c1C(=O)O)OC[C@@H]1C[C@H]21 (single isomer, unassigned) [Example 12]
Cell cycle (G1 attenuation, nM) [1]: 3 nM
HE-stained liver sections vs Vehicle group (NASH mice; 1 mg/kg (BID)): No obvious differences
Mean body weight at the day before sacrifice (NASH mice; 1 mg/kg (BID) oral): 19.2 ± 1.4 g
Fibrosis area (Sirius red-positive area) (NASH mice; 1 mg/kg (BID)): 1.12±0.46%
Inflammation area (F4/80-positive area) (NASH mice; 1 mg/kg (BID)): 3.67±0.91%
Fat deposition area (oil red-positive area) (NASH mice; 1 mg/kg (BID)): 18.47±5.22%
Liver TG content (NASH mice; 1 mg/kg (BID)): 71.7±30.3 mg/g liver
Hepatocellular ballooning and inflammatory cell infiltration vs Vehicle group (NASH mice; 3 mg/kg (BID)): decrease
Mean body weight at the day before sacrifice (NASH mice; 3 mg/kg (BID) oral): 18.7 ± 1.4 g
Whole blood HbA1c levels (NASH mice; 3 mg/kg (BID)): decreased
Fibrosis area (Sirius red-positive area) (NASH mice; 3 mg/kg (BID)): 0.89±0.32%
Inflammation area (F4/80-positive area) (NASH mice; 3 mg/kg (BID)): 3.47±0.65%
NAFLD Activity score (NAS) (NASH mice; 3 mg/kg (BID)): 3.6±1.6
Fat deposition area (oil red-positive area) (NASH mice; 3 mg/kg (BID)): 19.53±4.64%
Liver TG content (NASH mice; 3 mg/kg (BID)): 52.9±18.5 mg/g liver
Hepatocellular ballooning and inflammatory cell infiltration vs Vehicle group (NASH mice; 10 mg/kg (BID)): decrease
Mean body weight at the day before sacrifice (NASH mice; 10 mg/kg (BID) oral): 18.7 ± 1.0 g
Whole blood HbA1c levels (NASH mice; 10 mg/kg (BID)): decreased
Fibrosis area (Sirius red-positive area) (NASH mice; 10 mg/kg (BID)): 1.07±0.31%
Inflammation area (F4/80-positive area) (NASH mice; 10 mg/kg (BID)): 3.82±0.57%
NAFLD Activity score (NAS) (NASH mice; 10 mg/kg (BID)): 3.4±1.5
Fat deposition area (oil red-positive area) (NASH mice; 10 mg/kg (BID)): 23.31±9.18%
Liver TG content (NASH mice; 10 mg/kg (BID)): 56.7±25.8 mg/g liver
HE-stained liver sections vs Vehicle group (NASH mice; 30 mg/kg (QD)): No obvious differences
Mean body weight at the day before sacrifice (NASH mice; 30 mg/kg (QD) oral): 17.9 ± 0.9 g
Fibrosis area (Sirius red-positive area) (NASH mice; 30 mg/kg (QD)): 0.99±0.43%
Inflammation area (F4/80-positive area) (NASH mice; 30 mg/kg (QD)): 3.90±0.78%
Fat deposition area (oil red-positive area) (NASH mice; 30 mg/kg (QD)): 22.30±9.59%
Liver TG content (NASH mice; 30 mg/kg (QD)): 62.4±18.1 mg/g liver
Plasma total cholesterol levels (NASH mice; BID dosing, dose dependent, FIG. 10): decreased
NAS (NASH mice; QD dosing (30 mg/kg)): did not show evident improvement
Plasma total cholesterol levels (NASH mice; QD dosing (30 mg/kg)): significantly decreased
Whole blood HbA1c (NASH mice; QD dosing (30 mg/kg)): did not show evident improvement

— patent US10064839B2, “Methods of treating liver diseases” (Zafgen, Inc., priority 2012, dated 2018)
